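Test compounds were applied to cells in 96-well plates for 48 hours at 5 doses. GI50: concentration for 50% inhibition of growth. TGI: total growth inhibition.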
Tests used:
Assay in all cases: NCI tumour cell line growth inhibition, 48 h
PC-3 prostate = system: PC-3 prostate
SK-MEL-5 melanoma = system: SK-MEL-5 melanoma
NCI-H23 lung = system: NCI-H23 lung
MDA-MB-231 breast = system: MDA-MB-231 breast
T-47D breast = system: T-47D breast
UACC-62 melanoma = system: UACC-62 melanoma
SW-620 colon = system: SW-620 colon
HOP-92 NSCLC = system: HOP-92 NSCLC
TK-10 renal = system: TK-10 renal
SK-MEL-2 melanoma = system: SK-MEL-2 melanoma
CCRF-CEM leukemia = system: CCRF-CEM leukemia
RXF 393 renal = system: RXF 393 renal
SNB-19 CNS = system: SNB-19 CNS
SK-OV-3 ovarian = system: SK-OV-3 ovarian
NCI-H226 lung = system: NCI-H226 lung
ACHN renal = system: ACHN renal
MOLT-4 leukemia = system: MOLT-4 leukemia
DU-145 prostate = system: DU-145 prostate
OVCAR-8 ovarian = system: OVCAR-8 ovarian
K-562 leukemia = system: K-562 leukemia
MCF7 breast = system: MCF7 breast
HCC-2998 colon = system: HCC-2998 colon
MDA-MB-435 = system: MDA-MB-435
NCI/ADR-RES ovarian = system: NCI/ADR-RES ovarian
HCT-15 colon = system: HCT-15 colon
A498 renal = system: A498 renal
NCI-H522 lung = system: NCI-H522 lung
LOX IMVI melanoma = system: LOX IMVI melanoma
SN12C renal = system: SN12C renal
BT-549 breast = system: BT-549 breast
SF-268 CNS = system: SF-268 CNS
HT29 colon = system: HT29 colon
M14 melanoma = system: M14 melanoma
HCT-116 colon = system: HCT-116 colon
NCI-H460 lung = system: NCI-H460 lung
MALME-3M melanoma = system: MALME-3M melanoma
SNB-75 CNS = system: SNB-75 CNS
786-0 renal = system: 786-0 renal
RPMI-8226 leukemia = system: RPMI-8226 leukemia
IGROV1 ovarian = system: IGROV1 ovarian
OVCAR-3 ovarian = system: OVCAR-3 ovarian
CAKI-1 renal = system: CAKI-1 renal
U251 CNS = system: U251 CNS
OVCAR-4 ovarian = system: OVCAR-4 ovarian
HS 578T breast = system: HS 578T breast
HOP-62 NSCLC = system: HOP-62 NSCLC
SF-295 CNS = system: SF-295 CNS
UACC-257 melanoma = system: UACC-257 melanoma
SR leukemia = system: SR leukemia
A549 NSCLC = system: A549 NSCLC
SF-539 CNS = system: SF-539 CNS
KM12 colon = system: KM12 colon
EKVX NSCLC = system: EKVX NSCLC
OVCAR-5 ovarian = system: OVCAR-5 ovarian
HL-60(TB) leukemia = system: HL-60(TB) leukemia
SK-MEL-28 melanoma = system: SK-MEL-28 melanoma
UO-31 renal = system: UO-31 renal

For `O=C1c2c(c3c4ccc(Br)cc4oc3c3[nH]c4ccccc4c23)C(=O)N1O`, the GI50 (PC-3 prostate) was 1.3 µM, the TGI (PC-3 prostate) was greater than 100 µM and the GI50 (SK-MEL-5 melanoma) was 1.48 µM. It also gave a TGI (SK-MEL-5 melanoma) of 3.27 µM, a GI50 (NCI-H23 lung) of 1.75 µM and a TGI (NCI-H23 lung) of 6.39 µM. It also gave a GI50 (MDA-MB-231 breast) of 2.48 µM, a TGI (MDA-MB-231 breast) greater than 100 µM and a GI50 (T-47D breast) of 1.92 µM. It also gave a TGI (T-47D breast) greater than 100 µM, a GI50 (UACC-62 melanoma) of 1.52 µM and a TGI (UACC-62 melanoma) of 3.94 µM. The GI50 (SW-620 colon) was 1.38 µM, the TGI (SW-620 colon) was greater than 100 µM and the GI50 (HOP-92 NSCLC) was 1.74 µM. The TGI (HOP-92 NSCLC) was 4.45 µM, the GI50 (TK-10 renal) was 4.67 µM and the TGI (TK-10 renal) was greater than 100 µM. The GI50 (SK-MEL-2 melanoma) was 2.34 µM, the TGI (SK-MEL-2 melanoma) was 7.23 µM and the GI50 (CCRF-CEM leukemia) was 0.0418 µM. The TGI (CCRF-CEM leukemia) was greater than 100 µM, the GI50 (RXF 393 renal) was 2.1 µM and the TGI (RXF 393 renal) was 6.34 µM. For the same compound, the GI50 (SNB-19 CNS) was 2.14 µM, the TGI (SNB-19 CNS) was greater than 100 µM and the GI50 (SK-OV-3 ovarian) was 2.84 µM. For the same compound, the TGI (SK-OV-3 ovarian) was greater than 100 µM, the GI50 (NCI-H226 lung) was 2.34 µM and the TGI (NCI-H226 lung) was greater than 100 µM. For the same compound, the GI50 (ACHN renal) was 1.11 µM, the TGI (ACHN renal) was greater than 100 µM and the GI50 (MOLT-4 leukemia) was 0.308 µM. The TGI (MOLT-4 leukemia) was greater than 100 µM, the GI50 (DU-145 prostate) was 3.23 µM and the TGI (DU-145 prostate) was greater than 100 µM. It also gave a GI50 (OVCAR-8 ovarian) of 1.45 µM, a TGI (OVCAR-8 ovarian) greater than 100 µM and a GI50 (K-562 leukemia) of 2.07 µM. It also gave a TGI (K-562 leukemia) greater than 100 µM, a GI50 (MCF7 breast) of 1.12 µM and a TGI (MCF7 breast) greater than 100 µM. The GI50 (HCC-2998 colon) was 1.94 µM, the TGI (HCC-2998 colon) was greater than 100 µM and the GI50 (MDA-MB-435) was 3.11 µM. The TGI (MDA-MB-435) was greater than 100 µM, the GI50 (NCI/ADR-RES ovarian) was 2.64 µM and the TGI (NCI/ADR-RES ovarian) was greater than 100 µM. It also gave a GI50 (HCT-15 colon) of 2.13 µM, a TGI (HCT-15 colon) greater than 100 µM and a GI50 (A498 renal) of 0.585 µM. The TGI (A498 renal) was 4.41 µM, the GI50 (NCI-H522 lung) was 1.07 µM and the TGI (NCI-H522 lung) was greater than 100 µM.
For `Cc1ccc(-c2nc(C(Cl)Cl)n3nc(-c4ccccc4)cc3n2)cc1`, the GI50 (LOX IMVI melanoma) was greater than 100 µM, the TGI (LOX IMVI melanoma) was greater than 100 µM and the GI50 (SK-MEL-5 melanoma) was greater than 100 µM. For the same compound, the TGI (SK-MEL-5 melanoma) was greater than 100 µM, the GI50 (NCI-H23 lung) was 1.17 µM and the TGI (NCI-H23 lung) was greater than 100 µM. The GI50 (SN12C renal) was greater than 100 µM, the TGI (SN12C renal) was greater than 100 µM and the GI50 (MDA-MB-231 breast) was 0.21 µM. For the same compound, the TGI (MDA-MB-231 breast) was 0.678 µM, the GI50 (T-47D breast) was 0.505 µM and the TGI (T-47D breast) was 3.53 µM. The GI50 (BT-549 breast) was greater than 100 µM, the TGI (BT-549 breast) was greater than 100 µM and the GI50 (SF-268 CNS) was 1.06 µM. The TGI (SF-268 CNS) was 4.82 µM, the GI50 (HT29 colon) was 1.1 µM and the TGI (HT29 colon) was greater than 56.2 µM. The GI50 (SW-620 colon) was 0.392 µM, the TGI (SW-620 colon) was 2.35 µM and the GI50 (HOP-92 NSCLC) was 0.281 µM. It also gave a TGI (HOP-92 NSCLC) of 1.35 µM, a GI50 (M14 melanoma) greater than 100 µM and a TGI (M14 melanoma) greater than 100 µM. It also gave a GI50 (HCT-116 colon) of 0.258 µM, a TGI (HCT-116 colon) of 0.712 µM and a GI50 (NCI-H460 lung) of 0.273 µM. It also gave a TGI (NCI-H460 lung) of 1.05 µM, a GI50 (MALME-3M melanoma) greater than 100 µM and a TGI (MALME-3M melanoma) greater than 100 µM. It also gave a GI50 (SNB-75 CNS) greater than 100 µM, a TGI (SNB-75 CNS) greater than 100 µM and a GI50 (CCRF-CEM leukemia) greater than 100 µM. It also gave a TGI (CCRF-CEM leukemia) greater than 100 µM, a GI50 (786-0 renal) of 0.676 µM and a TGI (786-0 renal) of 2.17 µM. For the same compound, the GI50 (RPMI-8226 leukemia) was 0.499 µM, the TGI (RPMI-8226 leukemia) was 3.11 µM and the GI50 (IGROV1 ovarian) was 0.711 µM. It also gave a TGI (IGROV1 ovarian) greater than 100 µM, a GI50 (OVCAR-3 ovarian) of 0.222 µM and a TGI (OVCAR-3 ovarian) of 0.586 µM. It also gave a GI50 (RXF 393 renal) of 0.298 µM, a TGI (RXF 393 renal) of 0.896 µM and a GI50 (CAKI-1 renal) of 0.31 µM. For the same compound, the TGI (CAKI-1 renal) was 1.49 µM, the GI50 (SK-OV-3 ovarian) was 2.56 µM and the TGI (SK-OV-3 ovarian) was greater than 100 µM. The GI50 (NCI-H226 lung) was greater than 100 µM, the TGI (NCI-H226 lung) was greater than 100 µM and the GI50 (ACHN renal) was 0.302 µM. For the same compound, the TGI (ACHN renal) was 0.93 µM, the GI50 (MOLT-4 leukemia) was greater than 100 µM and the TGI (MOLT-4 leukemia) was greater than 100 µM. The GI50 (OVCAR-8 ovarian) was 0.512 µM, the TGI (OVCAR-8 ovarian) was greater than 100 µM and the GI50 (U251 CNS) was 0.322 µM. The TGI (U251 CNS) was 1.53 µM, the GI50 (K-562 leukemia) was 1.07 µM and the TGI (K-562 leukemia) was greater than 100 µM. For the same compound, the GI50 (OVCAR-4 ovarian) was 0.68 µM, the TGI (OVCAR-4 ovarian) was 3.99 µM and the GI50 (HS 578T breast) was 1.2 µM. The TGI (HS 578T breast) was 3.96 µM, the GI50 (HOP-62 NSCLC) was 0.566 µM and the TGI (HOP-62 NSCLC) was 3.15 µM. For the same compound, the GI50 (NCI/ADR-RES ovarian) was 0.476 µM, the TGI (NCI/ADR-RES ovarian) was 3.76 µM and the GI50 (HCT-15 colon) was 0.313 µM. It also gave a TGI (HCT-15 colon) of 1.12 µM, a GI50 (NCI-H522 lung) greater than 100 µM and a TGI (NCI-H522 lung) greater than 100 µM.
Compound `COc1cc2c(cc1OCCCOc1cc3c(cc1OC)C(=O)N1CCC[C@H]1CN3)N=C[C@@H]1CCCN1C2=O` has a TGI (SF-295 CNS) of 0.671 µM, a TGI (PC-3 prostate) of 8.4 µM and a TGI (LOX IMVI melanoma) of 10.8 µM. For the same compound, the TGI (NCI-H23 lung) was 0.709 µM, the TGI (UACC-257 melanoma) was 0.516 µM and the TGI (SN12C renal) was greater than 33 µM. It also gave a TGI (SR leukemia) of 0.0265 µM, a TGI (MDA-MB-231 breast) of 16.6 µM and a TGI (T-47D breast) greater than 100 µM. The TGI (BT-549 breast) was 10.3 µM, the TGI (SF-268 CNS) was 0.473 µM and the TGI (A549 NSCLC) was greater than 28.1 µM. For the same compound, the TGI (HT29 colon) was 13.7 µM, the TGI (SW-620 colon) was greater than 32.4 µM and the TGI (M14 melanoma) was 0.24 µM. The TGI (TK-10 renal) was 0.554 µM, the TGI (SF-539 CNS) was 0.411 µM and the TGI (KM12 colon) was 0.327 µM. It also gave a TGI (EKVX NSCLC) greater than 49 µM, a TGI (SK-MEL-2 melanoma) of 0.365 µM and a TGI (MALME-3M melanoma) of 0.268 µM. For the same compound, the TGI (OVCAR-5 ovarian) was 1.32 µM, the TGI (SNB-75 CNS) was 2.89 µM and the TGI (CCRF-CEM leukemia) was greater than 100 µM. For the same compound, the TGI (786-0 renal) was 2.18 µM, the GI50 (RPMI-8226 leukemia) was 0.156 µM and the TGI (RPMI-8226 leukemia) was 0.654 µM. For the same compound, the TGI (IGROV1 ovarian) was 0.451 µM, the TGI (HL-60(TB) leukemia) was 0.68 µM and the TGI (OVCAR-3 ovarian) was 0.342 µM. It also gave a TGI (RXF 393 renal) of 2.55 µM, a TGI (CAKI-1 renal) of 1.88 µM and a TGI (SNB-19 CNS) greater than 100 µM. The TGI (SK-OV-3 ovarian) was greater than 100 µM, the TGI (NCI-H226 lung) was 0.398 µM and the TGI (ACHN renal) was 0.359 µM. The TGI (MOLT-4 leukemia) was 0.148 µM, the TGI (DU-145 prostate) was greater than 37.7 µM and the TGI (OVCAR-8 ovarian) was 1.28 µM. For the same compound, the TGI (SK-MEL-28 melanoma) was 0.749 µM, the TGI (K-562 leukemia) was 0.483 µM and the GI50 (HCC-2998 colon) was 0.172 µM. It also gave a TGI (HCC-2998 colon) of 0.468 µM, a TGI (OVCAR-4 ovarian) greater than 36.5 µM and a TGI (HOP-62 NSCLC) of 0.892 µM. It also gave a TGI (MDA-MB-435) of 0.29 µM, a TGI (NCI/ADR-RES ovarian) of 24.8 µM and a TGI (HCT-15 colon) greater than 24.5 µM. The TGI (UO-31 renal) was greater than 100 µM, the GI50 (A498 renal) was 0.262 µM and the TGI (A498 renal) was 0.668 µM.
